Experiments:
[1] = Tested in vitro against HIV-1 LAI from MT-4 cells using MTT assay
[2] = Tested in vitro against HIV-1 MDR using MAGI assay

SMILES | EC50 [1] [µM] | EC50 [2] [µM]
C#C[C@]1(CO)O[C@@H](n2cnc3c(=O)[nH]c(N)nc32)C[C@H]1O [2-Amino-9-(5-ethynyl-4-hydroxy-5-hydroxymethyl-tetrahydro-furan-2-yl)-9H-purin-6-ol] | 0.0014 | –
C#C[C@]1(CO)O[C@@H](n2cc(F)c(N)nc2=O)C[C@H]1O [4-Amino-1-(5-ethynyl-4-hydroxy-5-hydroxymethyl-tetrahydro-furan-2-yl)-5-fluoro-1H-pyrimidin-2-one] | 0.03 | 0.009
C#C[C@]1(CO)O[C@@H](n2cnc3c(N)nc(N)nc32)C[C@H]1O [5-(2,6-Diamino-purin-9-yl)-2-ethynyl-2-hydroxymethyl-tetrahydro-furan-3-ol] | 0.0003 | 0.0013
C#C[C@]1(CO)O[C@@H](n2cc(Cl)c(=O)[nH]c2=O)C[C@H]1O | 6 | –
C#C[C@]1(CO)O[C@@H](n2cnc3c(N)ncnc32)C[C@H]1O [5-(6-Amino-purin-9-yl)-2-ethynyl-2-hydroxymethyl-tetrahydro-furan-3-ol] | 0.012 | –
C#C[C@]1(CO)O[C@@H](n2cnc3c(=O)[nH]cnc32)C[C@H]1O [9-(5-Ethynyl-4-hydroxy-5-hydroxymethyl-tetrahydro-furan-2-yl)-9H-purin-6-ol] | 0.15 | 0.65
Cc1cn([C@H]2C[C@H](N=[N+]=[N-])[C@@H](CO)O2)c(=O)[nH]c1=O [1-((2R,4S,5S)-4-Azido-5-hydroxymethyl-tetrahydro-furan-2-yl)-5-methyl-1H-pyrimidine-2,4-dione] | 0.038 | 24.9
C#C[C@]1(CO)O[C@@H](n2cc(Br)c(=O)[nH]c2=O)C[C@H]1O | 2.3 | –
C#C[C@]1(CO)O[C@@H](n2cc(C)c(N)nc2=O)C[C@H]1O [4-Amino-1-(5-ethynyl-4-hydroxy-5-hydroxymethyl-tetrahydro-furan-2-yl)-5-methyl-1H-pyrimidin-2-one] | 0.011 | 0.0045
C#C[C@]1(CO)O[C@@H](n2ccc(N)nc2=O)C[C@H]1O [4-Amino-1-(5-ethynyl-4-hydroxy-5-hydroxymethyl-tetrahydro-furan-2-yl)-1H-pyrimidin-2-one] | 0.0048 | 0.0015
C#C[C@]1(CO)O[C@@H](n2cc(F)c(=O)[nH]c2=O)C[C@H]1O | > 10 | –
C#C[C@]1(CO)O[C@@H](n2cc(C)c(=O)[nH]c2=O)C[C@H]1O [1-(5-Ethynyl-4-hydroxy-5-hydroxymethyl-tetrahydro-furan-2-yl)-5-methyl-1H-pyrimidine-2,4-dione] | 0.61 | 0.24
C#C[C@]1(CO)O[C@@H](n2cc(CC)c(=O)[nH]c2=O)C[C@H]1O | > 360 | –
C#C[C@]1(CO)O[C@@H](n2cnc3cncnc32)C[C@H]1O [2-Ethynyl-2-hydroxymethyl-5-purin-9-yl-tetrahydro-furan-3-ol] | 117 | 145
C#C[C@]1(CO)O[C@@H](n2cc(I)c(=O)[nH]c2=O)C[C@H]1O [1-(5-Ethynyl-4-hydroxy-5-hydroxymethyl-tetrahydro-furan-2-yl)-5-iodo-1H-pyrimidine-2,4-dione] | 0.34 | 0.62

From BindingDB's records for doi:10.1021/jm000209n (Tohoku University, 2000)
